{"source": "patent US20240180882A1", "about": "“COMPOUNDS FOR PROTECTION OF NOISE-INDUCED HEARING-LOSS” (The Regents of the University of California, priority 2021, published 2024)", "key": {"[1]": {"assay": "Drug distribution of Compound 1 in mouse plasma, brain and perilymph after oral dosing", "assay_type": "in vivo", "conditions": "2 h after a 300 mg/kg p.o. dose", "experimental": "Complete ADME and PK assessment of Compound 1 and Compound 2 at several doses by oral and intratympanic (IT) dosing in wild-type mice and in transgenic efflux-pump knock-out mice to benchmark compound exposure. […] Drug distribution of Compound 1 in a mouse was determined after dosing at 300 mg/kg."}, "PAMPA permeability": {"assay": "PAMPA permeability", "assay_type": "in vitro ADME"}, "six-week-old B6 mice": {"tested_on": "six-week-old B6 mice", "assay": "Noise-induced hearing loss in mice after moderate noise exposure (ABR thresholds, IHC synaptic ribbons), orally administered compound", "assay_type": "in vivo, mouse", "source_text": "FIGS. 9A-9C depict that Compound 1 administration is protective against mid- to high-frequency hearing loss and synaptic ribbon loss. (A) Threshold elevation two-weeks after moderate noise exposure is reduced in six-week-old B6 mice treated with orally administered Compound 1 either prior or after noise exposure. […] (C) Quantification of paired synaptic ribbons in mice two weeks after exposure to moderate noise given vehicle (top row) and Compound 1 (bottom row). (n=4; scale bar=[…]).\nInducing NIHL in mice. To induce NIHL, mice are exposed to octave band noise (OBN) with a center frequency of 10 kHz for 2 hours using a method adapted from Kujawa, Sharon G., and M. Charles Liberman. “Adding insult to injury: cochlear nerve degeneration after “temporary” noise-induced hearing loss.” Journal of Neuroscience 29.45 (2009): 14077-14085., which is incorporated herein by reference in its entirety.\nThere has been increasing interest in AMPK activation in human disease. […] The activation pathways and downstream targets of AMPK differ depending on its subcellular localization (FIG. 8C). In response to energy stress, LKB1 activates cytoplasmic and lysosomal AMPK in an axin-dependent manner as exemplified by phosphorylation of the AMPK target ACC1, whereas it activates mitochondrial AMPK in an axin-independent manner as exemplified by phosphorylation of the AMPK target ACC2. […]"}, "AMPK": {"tested_on": "AMPK", "assay": "AMPK activation in inner and outer hair cells of treated mice", "assay_type": "in vivo, mouse", "source_text": "There has been increasing interest in AMPK activation in human disease. […] The activation pathways and downstream targets of AMPK differ depending on its subcellular localization (FIG. 8C). In response to energy stress, LKB1 activates cytoplasmic and lysosomal AMPK in an axin-dependent manner as exemplified by phosphorylation of the AMPK target ACC1, whereas it activates mitochondrial AMPK in an axin-independent manner as exemplified by phosphorylation of the AMPK target ACC2. By contrast, activation of nuclear AMPK in response to elevated intracellular Ca^2+ levels are mediated by CaMKK2. For the observed noise-induced activation of nuclear AMPK in IHCs, in the absence of which (γ2 deficiency) mice suffer greater synaptic ribbon morphometric changes and NIHL (FIGS. 3A-3D & 4A-4E), AMPK may be activated by CaMKK2, especially given that physiological sound relay to the auditory nerve in IHCs involves transient Ca2+ elevation."}, "[2]": {"assay": "Concentration in perilymph and plasma following intratympanic dosing in two mouse strains (LC-MS/MS)", "assay_type": "in vivo, C57BL/6J and FVB mice", "conditions": "5 μL of 5 mg/mL in 5% DMSO-95% Poloxamer 407 solution, all plasma data points except one", "experimental": "Compound 1 was dissolved DMSO and added to a cold solution of 20% Poloxamer 407 in PBS. The mixture was vortexed to give a solution of final solution of 5 mg/mL Compound 1 in 5% DMSO-95% Poloxamer 407 solution.\nIn fully anesthetized mice, the mouse bulla was reached through the digastric and sternocleidomastoid muscles and a 27-gauge needle was used to drill an opening adjacent to the round window niche. 5 μL of Compound 1 in the cold 5%/95% DMSO/Poloxamer 407 hydrogel vehicle was introduced by intratympanic injection in both C57BL/6J and FVB mice. Upon reaching the desired time point, mice were euthanized under deep anesthesia. Blood from the heart was collected to determine drug plasma levels. The mouse bulla was re-exposed to verify the injection site and all possible drug remaining were removed from inner ear before collecting the perilymph from the apical side of the cochlea.\nDrug levels were measured using LC-MS/MS (Q-trap) with 500 nM indomethacin as the internal standard. Perilymph samples were diluted 10× in plasma. An aliquot of 1 μL sample was protein precipitated with 50 μL IS, the mixture was vortex-mixed well and centrifuged at 3600 rpm for 10 min, Room Temp. 10 μL supernatant was injected for LC-MS/MS analysis. […]"}, "[3]": {"assay": "Test article handling / stability information", "assay_type": "physicochemical", "conditions": "room temp"}, "[4]": {"conditions": "analysis of known AMPK activators; cited from earlier work"}, "[5]": {"conditions": "preclinical data; cited from earlier work"}}, "note": "Read-outs that look alike come from different tables or passages of the source.", "data": [{"smiles": "O[C@@H]1CO[C@H]2[C@@H]1OC[C@H]2Oc1nc2nc(-c3ccc(-c4ccccc4)cc3)c(Cl)cc2[nH]1", "note": "[Compound 1, (3R,3aR,6R,6aR)-6-((5-([1,1′-biphenyl]-4-yl)-6-chloro-3H-imidazo[4,5-b]pyridin-2-yl)oxy)hexahydrofuro[3,2-b]furan-3-ol]", "values": [{"measurement": "concentration at 2 h", "setting": "[1]; brain, read-out: Brain level of Compound 1", "result": "45 ± 5", "unit": "µM"}, {"measurement": "concentration at 2 h", "setting": "[1]; perilymph, read-out: Perilymph level of Compound 1", "result": "0.87 ± 0.04", "unit": "µM"}, {"measurement": "concentration at 2 h", "setting": "[1]; plasma, read-out: Plasma level of Compound 1", "result": "443 ± 64", "unit": "µM"}, {"measurement": "Papp", "setting": "PAMPA permeability", "result": 24, "unit": "×10⁻⁶ cm/s"}, {"measurement": "ABR threshold elevation two weeks after moderate noise exposure", "setting": "six-week-old B6 mice; orally administered either prior or after noise exposure, six-week-old B6 mice", "result": "reduced"}, {"measurement": "IHC (32 kHz region) synaptic ribbon counts after moderate noise exposure", "setting": "six-week-old B6 mice; two weeks after exposure to moderate noise, vs vehicle, n=4", "result": "preservation"}, {"measurement": "AMPK activation in hair cells", "setting": "AMPK", "result": "nuclear and cytoplasmic activation of AMPK in both inner and outer hair cells"}, {"measurement": "Plasma concentration following intratympanic dosing", "setting": "[2]", "result": "below the level of detection"}, {"measurement": "Stability of test article", "setting": "[3]", "result": "Compound 1 stable at room temp"}, {"measurement": "Passive permeability (in words)", "setting": "[4]", "result": "high passive permeability"}, {"measurement": "Effect on glucose homeostasis", "setting": "[5]", "result": "improve glucose homeostasis"}]}]}
